This note sets out measurements from patent publication US20230278995A1, “1,3,4-OXADIAZOLE DERIVATIVE COMPOUNDS AS HISTONE DEACETYLASE 6 INHIBITOR, AND THE PHARMACEUTICAL COMPOSITION COMPRISING THE SAME” (CHONG KUN DANG PHARMACEUTICAL CORP., priority 2020, published 2023).

Where only a bound is given, the exact number is not on record here.

The target in one assay is T1, human recombinant HDAC6 (Homo sapiens, UniProt Q9UBN7).
T1 construct: purchased Calbiochem Inc. 382180
T1 sequence (Q9UBN7 1-1215): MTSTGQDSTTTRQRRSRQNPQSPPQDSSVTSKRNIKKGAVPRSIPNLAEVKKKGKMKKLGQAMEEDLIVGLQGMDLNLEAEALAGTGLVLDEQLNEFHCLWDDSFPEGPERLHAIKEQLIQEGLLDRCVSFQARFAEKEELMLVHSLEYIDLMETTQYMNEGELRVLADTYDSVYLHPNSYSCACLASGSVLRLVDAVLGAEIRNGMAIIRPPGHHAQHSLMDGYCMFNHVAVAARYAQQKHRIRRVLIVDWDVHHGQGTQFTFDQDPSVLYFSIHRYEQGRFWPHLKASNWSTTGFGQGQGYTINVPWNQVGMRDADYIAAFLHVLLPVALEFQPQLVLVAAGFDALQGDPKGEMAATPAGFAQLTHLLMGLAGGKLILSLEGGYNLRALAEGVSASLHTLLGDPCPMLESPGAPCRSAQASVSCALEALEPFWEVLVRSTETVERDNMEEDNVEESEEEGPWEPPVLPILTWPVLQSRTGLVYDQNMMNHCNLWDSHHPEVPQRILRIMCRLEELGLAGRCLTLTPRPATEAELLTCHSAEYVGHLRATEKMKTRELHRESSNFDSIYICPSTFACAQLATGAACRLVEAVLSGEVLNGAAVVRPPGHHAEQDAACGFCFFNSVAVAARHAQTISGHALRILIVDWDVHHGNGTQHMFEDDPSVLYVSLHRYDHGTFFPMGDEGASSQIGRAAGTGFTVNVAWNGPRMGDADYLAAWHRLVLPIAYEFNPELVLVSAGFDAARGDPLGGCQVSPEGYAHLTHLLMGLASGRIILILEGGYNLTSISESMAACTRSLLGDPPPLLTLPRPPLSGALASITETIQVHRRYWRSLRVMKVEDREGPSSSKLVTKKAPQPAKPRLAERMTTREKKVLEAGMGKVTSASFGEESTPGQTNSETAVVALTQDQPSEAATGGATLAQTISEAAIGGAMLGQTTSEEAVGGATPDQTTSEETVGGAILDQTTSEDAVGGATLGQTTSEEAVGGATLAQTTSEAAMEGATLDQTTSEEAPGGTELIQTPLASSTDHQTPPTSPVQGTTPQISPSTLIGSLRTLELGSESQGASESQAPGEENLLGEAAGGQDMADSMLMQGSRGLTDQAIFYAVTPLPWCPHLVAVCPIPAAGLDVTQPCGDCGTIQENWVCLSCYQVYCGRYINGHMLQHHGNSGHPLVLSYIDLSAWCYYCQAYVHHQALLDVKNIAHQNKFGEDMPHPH
Put plainly: HDAC enzyme activity inhibition assay (HDAC Fluorimetric Drug Discovery Kit), HDAC6. The following applies: for HDAC6 selectivity (fold): HDAC1 vs HDAC6; for IC50: human recombinant HDAC6, same protocol as HDAC1. The class given is biochemical. The gist of the method:
(§1)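 The preceding reaction ran 60 min at 30 °C with 0.3 μg recombinant human enzyme, HDAC1 or HDAC6 under an identical protocol, and 10 μM Fluor de Lys-SIRT1 substrate, across 5-fold diluted compound.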

Another assay has as its target T2, human recombinant HDAC1 (Homo sapiens, UniProt Q13547).
T2 construct: purchased Enzo Life Sciences, Inc. BML-SE456
The assay can be described thus: HDAC enzyme activity inhibition assay (HDAC Fluorimetric Drug Discovery Kit), HDAC1. Particulars: human recombinant HDAC1, Fluor de Lys-SIRT1 substrate, 30° C. 60 minutes. The class given is biochemical. The gist of the method: as §1

T2 sequence (Q13547 whole entry): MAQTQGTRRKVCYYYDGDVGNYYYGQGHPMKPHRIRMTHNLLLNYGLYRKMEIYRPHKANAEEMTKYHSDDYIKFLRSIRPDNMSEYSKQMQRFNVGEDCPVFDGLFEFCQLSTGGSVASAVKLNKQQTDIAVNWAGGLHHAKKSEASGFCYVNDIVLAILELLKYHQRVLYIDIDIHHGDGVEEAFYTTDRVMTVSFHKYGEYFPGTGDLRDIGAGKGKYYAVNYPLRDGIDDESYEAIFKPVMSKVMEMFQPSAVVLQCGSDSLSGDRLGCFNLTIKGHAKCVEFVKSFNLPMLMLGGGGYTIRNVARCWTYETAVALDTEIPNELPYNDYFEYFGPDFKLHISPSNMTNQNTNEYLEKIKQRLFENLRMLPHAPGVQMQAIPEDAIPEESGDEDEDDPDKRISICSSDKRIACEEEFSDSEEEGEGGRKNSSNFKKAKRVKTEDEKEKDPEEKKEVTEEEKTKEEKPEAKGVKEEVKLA

In general, IC50 refers to the midpoint of a concentration-inhibition curve. As to `O=C(N(Cc1ccc(-c2nnc(C(F)F)o2)cn1)c1cccc(F)c1)C1(F)CN(C2CN(C3CCOC3)C2)C1` (stereo not drawn) [Compound 3397, N-((5-(5-(difluoromethyl)-1,3,4-oxadiazol-2-yl)pyridin-2-yl)methyl)-3-fluoro-N-(3-fluorophenyl)-1′-(tetrahydrofuran-3-yl)-[1,3′-biazetidine]-3-carboxamide], the “HDAC6 selectivity (fold)” value on human recombinant HDAC6 is on record as 1,022 fold. The half-maximal inhibitory concentration (IC50) at human recombinant HDAC6 amounted to 23.2 nM; on human recombinant HDAC1, 23700 nM.
For `O=C(N(Cc1ccc(-c2nnc(C(F)F)o2)cn1)c1cccc(F)c1)C1(F)CN(C2CN(C3CCCCC3)C2)C1` [Compound 3398, 1′-cyclohexyl-N-((5-(5-(difluoromethyl)-1,3,4-oxadiazol-2-yl)pyridin-2-yl)methyl)-3-fluoro-N-(3-fluorophenyl)-[1,3′-biazetidine]-3-carboxamide], on human recombinant HDAC6, the “HDAC6 selectivity (fold)” value is 1,374 fold and the IC50 amounted to 20 nM. Also, the IC50 on human recombinant HDAC1 amounted to 27500 nM.
On to `O=C(N(Cc1ccc(-c2nnc(C(F)F)o2)cn1)c1cccc(F)c1)C1(F)CN(C2CN(C3CCOCC3)C2)C1` [Compound 3399, N-((5-(5-(difluoromethyl)-1,3,4-oxadiazol-2-yl)pyridin-2-yl)methyl)-3-fluoro-N-(3-fluorophenyl)-1′-(tetrahydro-2H-pyran-4-yl)-[1,3′-biazetidine]-3-carboxamide], for which the “HDAC6 selectivity (fold)” value at human recombinant HDAC6 is on record as 1,569 fold. Besides, the IC50 turned out to be 20.1 nM on human recombinant HDAC6 and 31500 nM at human recombinant HDAC1.
As for `CCN1CCC(N2CC(F)(C(=O)N(Cc3ccc(-c4nnc(C(F)F)o4)cn3)c3cccc(F)c3)C2)CC1` [Compound 3400, N-((5-(5-(difluoromethyl)-1,3,4-oxadiazol-2-yl)pyridin-2-yl)methyl)-1-(1-ethylpiperidin-4-yl)-3-fluoro-N-(3-fluorophenyl)azetidine-3-carboxamide], at human recombinant HDAC6, the “HDAC6 selectivity (fold)” value is reported as 1,695 fold and the IC50 came to 21.6 nM. Moreover, the concentration for half-maximal inhibition (IC50) on human recombinant HDAC1 is 36600 nM.
Regarding `CCCN1CCC(N2CC(F)(C(=O)N(Cc3ccc(-c4nnc(C(F)F)o4)cn3)c3cccc(F)c3)C2)CC1` [Compound 3401, N-((5-(5-(difluoromethyl)-1,3,4-oxadiazol-2-yl)pyridin-2-yl)methyl)-3-fluoro-N-(3-fluorophenyl)-1-(1-propylpiperidin-4-yl)azetidine-3-carboxamide], at human recombinant HDAC6, the “HDAC6 selectivity (fold)” value is 1,951 fold and the IC50 came to 22.8 nM. The concentration for half-maximal inhibition (IC50) on human recombinant HDAC1 was found to be 44500 nM.
Regarding `CCCCN1CCC(N2CC(F)(C(=O)N(Cc3ccc(-c4nnc(C(F)F)o4)cn3)c3cccc(F)c3)C2)CC1` [Compound 3402, 1-(1-butylpiperidin-4-yl)-N-((5-(5-(difluoromethyl)-1,3,4-oxadiazol-2-yl)pyridin-2-yl)methyl)-3-fluoro-N-(3-fluorophenyl)azetidine-3-carboxamide], on human recombinant HDAC6, the “HDAC6 selectivity (fold)” value is 2,403 fold and the IC50 came to 20.8 nM. Also, the IC50 at human recombinant HDAC1 is more than 50000 nM.
For the compound `CC(C)CN1CCC(N2CC(F)(C(=O)N(Cc3ccc(-c4nnc(C(F)F)o4)cn3)c3cccc(F)c3)C2)CC1` [Compound 3403, N-((5-(5-(difluoromethyl)-1,3,4-oxadiazol-2-yl)pyridin-2-yl)methyl)-3-fluoro-N-(3-fluorophenyl)-1-(1-isobutylpiperidine-4-yl)azetidine-3-carboxamide], on human recombinant HDAC6, the “HDAC6 selectivity (fold)” value was determined as 911 fold and the 50% inhibitory concentration (IC50) came to 28.8 nM. Also, the concentration for half-maximal inhibition (IC50) at human recombinant HDAC1 worked out at 26300 nM.
On to `CC(C)N1CCC(N2CC(F)(C(=O)N(Cc3ccc(-c4nnc(C(F)F)o4)cn3)c3cccc(F)c3)C2)CC1` [Compound 3404, N-((5-(5-(difluoromethyl)-1,3,4-oxadiazol-2-yl)pyridin-2-yl)methyl)-3-fluoro-N-(3-fluorophenyl)-1-(1-isopropylpiperidin-4-yl)azetidine-3-carboxamide], for which, at human recombinant HDAC6, the “HDAC6 selectivity (fold)” value worked out at 773 fold and the half-inhibitory concentration (IC50) worked out at 32.9 nM. Besides, the IC50 at human recombinant HDAC1 came to 25400 nM.
For `O=C(N(Cc1ccc(-c2nnc(C(F)F)o2)cn1)c1cccc(F)c1)C1(F)CN(C2CCN(C3CCC3)CC2)C1` [Compound 3405, 1-(1-cyclobutylpiperidin-4-yl)-N-((5-(5-(difluoromethyl)-1,3,4-oxadiazol-2-yl)pyridin-2-yl)methyl)-3-fluoro-N-(3-fluorophenyl)azetidine-3-carboxamide], in that order: 771 fold, 26.5 nM and 20400 nM.
Take `O=C(N(Cc1ccc(-c2nnc(C(F)F)o2)cn1)c1cccc(F)c1)C1(F)CN(C2CCN(C3COC3)CC2)C1` [Compound 3406, N-((5-(5-(difluoromethyl)-1,3,4-oxadiazol-2-yl)pyridin-2-yl)methyl)-3-fluoro-N-(3-fluorophenyl)-1-(1-(oxetan-3-yl)piperidin-4-yl)azetidine-3-carboxamide]: on human recombinant HDAC6, the “HDAC6 selectivity (fold)” value worked out at 734 fold. For the same compound, the IC50 at human recombinant HDAC6 came to 36.2 nM; at human recombinant HDAC1, 26600 nM.
Regarding `O=C(N(Cc1ccc(-c2nnc(C(F)F)o2)cn1)c1cccc(F)c1)C1(F)CN(C2CCN(C3CCCC3)CC2)C1` [Compound 3407, 1-(1-cyclopentylpiperidin-4-yl)-N-((5-(5-(difluoromethyl)-1,3,4-oxadiazol-2-yl)pyridin-2-yl)methyl)-3-fluoro-N-(3-fluorophenyl)azetidine-3-carboxamide], at human recombinant HDAC6, the “HDAC6 selectivity (fold)” value is 2,581 fold and the IC50 turned out to be 18.6 nM. In addition, at human recombinant HDAC1, the IC50 is 48000 nM.
Consider `O=C(N(Cc1ccc(-c2nnc(C(F)F)o2)cn1)c1cccc(F)c1)C1(F)CN(C2CCN(C3CCOC3)CC2)C1` (stereo not drawn) [Compound 3408, N-((5-(5-(difluoromethyl)-1,3,4-oxadiazol-2-yl)pyridin-2-yl)methyl)-3-fluoro-N-(3-fluorophenyl)-1-(1-(tetrahydrofuran-3-yl)piperidin-4-yl)azetidine-3-carboxamide], for which, on human recombinant HDAC6, the “HDAC6 selectivity (fold)” value is recorded as 1,135 fold and the IC50 was 32.6 nM. In addition, the IC50 at human recombinant HDAC1 amounted to 37000 nM.
For `O=C(N(Cc1ccc(-c2nnc(C(F)F)o2)cn1)c1cccc(F)c1)C1(F)CN(C2CCN(C3CCCCC3)CC2)C1` [Compound 3409, 1-(1-cyclohexylpiperidin-4-yl)-N-((5-(5-(difluoromethyl)-1,3,4-oxadiazol-2-yl)pyridin-2-yl)methyl)-3-fluoro-N-(3-fluorophenyl)azetidine-3-carboxamide], the “HDAC6 selectivity (fold)” value at human recombinant HDAC6 is 1,497 fold. For the same compound, the half-inhibitory concentration (IC50) on human recombinant HDAC6 is 33.4 nM; on human recombinant HDAC1, more than 50000 nM.
Consider `O=C(N(Cc1ccc(-c2nnc(C(F)F)o2)cn1)c1cccc(F)c1)C1(F)CN(C2CCN(C3CCOCC3)CC2)C1` [Compound 3410, N-((5-(5-(difluoromethyl)-1,3,4-oxadiazol-2-yl)pyridin-2-yl)methyl)-3-fluoro-N-(3-fluorophenyl)-1-(1-(tetrahydro-2H-pyran-4-yl)piperidin-4-yl)azetidine-3-carboxamide], for which, at human recombinant HDAC6, the “HDAC6 selectivity (fold)” value is 1,343 fold and the half-maximal inhibitory concentration (IC50) was determined as 25.8 nM. Moreover, the IC50 at human recombinant HDAC1 turned out to be 34700 nM.
For the compound `CN1CC(F)(C(=O)N(Cc2ccc(-c3nnc(C(F)F)o3)cc2F)c2ccccc2)C1` [Compound 3429, N-(4-(5-(difluoromethyl)-1,3,4-oxadiazol-2-yl)-2-fluorobenzyl)-3-fluoro-1-methyl-N-phenylazetidine-3-carboxamide], the “HDAC6 selectivity (fold)” value at human recombinant HDAC6 came out at 421 fold. Moreover, the concentration for half-maximal inhibition (IC50) was 73.4 nM at human recombinant HDAC6 and 30900 nM at human recombinant HDAC1.
For `CCN1CC(F)(C(=O)N(Cc2ccc(-c3nnc(C(F)F)o3)cc2F)c2ccccc2)C1` [Compound 3430, N-(4-(5-(difluoromethyl)-1,3,4-oxadiazol-2-yl)-2-fluorobenzyl)-1-ethyl-3-fluoro-N-phenylazetidine-3-carboxamide] the same measures were 624 fold, 80.1 nM and more than 50000 nM.
